This note sets out measurements from patent US5391540A, “Substituted pyridine compounds” (Rohm and Haas Company, priority 1993, dated 1995).

Holding throughout (assay): Pre-emergent herbicidal activity (Table A)
Assay type in all cases: in vivo

In one assay the test system is Annual Bluegrass. The following applies: pre-emergence, Anbg, 11.2 kg/ha, 10-14 days, read-out: herbicidal rating (% inhibition). In short, it runs like this:
(§1)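 Seeds were sown on compacted topsoil and covered with soil into which test compound (in acetone or water carrier) had been mixed at 11.2 kg/ha. Pans were kept watered on a greenhouse bench, and percent inhibition was scored as a rating about 10-14 days (usually 11) after treatment.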

The next assay has as its system Indian Mustard. The following applies: Brassica juncea, pre-emergence, Inmu, 11.2 kg/ha, 10-14 days, read-out: herbicidal rating (% inhibition). In short, it runs like this: as §1
In a further assay the test system is Seedling Johnsongrass. To be noted: Sorghum halepense, pre-emergence, Sejg, 11.2 kg/ha, 10-14 days, read-out: herbicidal rating (% inhibition). The method, boiled down:
as §1

Another assay has as its system Wild Buckwheat. The following applies: Fallopia convolvulus, pre-emergence, Wibw, 11.2 kg/ha, 10-14 days, read-out: herbicidal rating (% inhibition). The method, boiled down: as §1
The subject of a further assay is Downy Brome. The following applies: Bromus tectorum, pre-emergence, Dobr, 11.2 kg/ha, 10-14 days, read-out: herbicidal rating (% inhibition). The method, boiled down: (§2)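 Seeds or perennial propagules set on compacted topsoil, then covered with soil mixed with a known amount of test compound applied in acetone or water carrier. Ratings assigned on a scale based on percent inhibition of each species.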

In the next assay the test system is Barnyardgrass. To be noted: Echinochloa crus-galli, pre-emergence, Bygr, 11.2 kg/ha, 10-14 days, read-out: herbicidal rating (% inhibition). In short, it runs like this:
as §2

The subject of another assay is Velvetleaf. The following applies: Abutilon theophrasti, pre-emergence, Vele, 11.2 kg/ha, 10-14 days, read-out: herbicidal rating (% inhibition). The method, boiled down: as §2
In a further assay the test system is Morningglory. The following applies: Ipomoea, pre-emergence, Mogl, 11.2 kg/ha, 10-14 days, read-out: herbicidal rating (% inhibition). The method, boiled down:
as §2

A further assay has as its system Yellow Nutsedge. To be noted: Cyperus, pre-emergence, Yens, 11.2 kg/ha, 10-14 days, read-out: herbicidal rating (% inhibition). In short, it runs like this:
as §2

The test system of the next assay is Cocklebur. The following applies: Xanthium strumarium, pre-emergence, Cobu, 11.2 kg/ha, 10-14 days, read-out: herbicidal rating (% inhibition). The method, boiled down: as §2

A word on the inhibition: it is the share of the control response that was lost under treatment. Consider `COC(=O)c1c(OC)nc(C(F)(F)F)c(C(=O)n2cc(C#N)cn2)c1CC(C)C` [Compound 111, 3-pyridinecarboxylic acid, 5-[(4-cyano-1H-pyrazo1-1-yl)carbonyl]-2-methoxy-4-(2-methylpropyl)-6-(trifluoromethyl)-, methyl ester], for which the inhibition at 11200 g/ha in the assay on Annual Bluegrass is 75 to 100%; in the assay on Indian Mustard, 75 to 100%; in the assay with Seedling Johnsongrass, 75 to 100%; in the assay on Wild Buckwheat, 75 to 100%; in the assay on Downy Brome it was 50 to 74%; with Barnyardgrass, 75 to 100%. The inhibition at 11200 g/ha in the assay with Velvetleaf is 75 to 100%; with Morningglory, 75 to 100%; in the assay with Yellow Nutsedge, 0 to 24%; with Cocklebur, 0 to 24%.
On to `COC(=O)c1c(OC)nc(C(F)(F)F)c(C=NCCO)c1CC(C)C` [Compound 128], for which the inhibition at 11200 g/ha in the assay with Annual Bluegrass is 75 to 100%; in the assay on Indian Mustard, 75 to 100%; with Seedling Johnsongrass, 75 to 100%; in the assay with Wild Buckwheat, 50 to 74%; in the assay with Downy Brome it was 75 to 100%; with Barnyardgrass, 75 to 100%. The inhibition at 11200 g/ha in the assay on Velvetleaf fell in the range of 25 to 49%; with Morningglory, 50 to 74%; in the assay on Yellow Nutsedge it was 0 to 24%; in the assay on Cocklebur, 0 to 24%.
On to `COC(=O)c1c(OC)nc(C(F)(F)F)c(C(=O)n2ccc(F)n2)c1CC(C)C` [Compound 102, 3-pyridinecarboxylic acid, 5-[(3-fluoro-1H-pyrazo1-1-yl)carbonyl]-2-methoxy-4-(2-methylpropyl)-6-(trifluoromethyl)-, methyl ester], for which the inhibition at 11200 g/ha with Annual Bluegrass, in the assay with Indian Mustard, in the assay with Seedling Johnsongrass, with Wild Buckwheat, in the assay on Downy Brome and in the assay on Barnyardgrass was 75 to 100% each time. In addition, the inhibition at 11200 g/ha in the assay on Velvetleaf, with Morningglory, in the assay on Yellow Nutsedge and in the assay with Cocklebur was 75 to 100% throughout.
With `COC(=O)c1c(OC)nc(C(F)(F)F)c(C(=O)n2cc(NC(C)=O)cn2)c1CC(C)C` [Compound 107, 3-pyridinecarboxylic acid, 5-[[4-(acetylamino)-1H-pyrazol-1-yl]carbonyl]-2-methoxy-4-(2-methylpropyl)-6-(trifluoromethyl)-, methyl ester], the inhibition at 11200 g/ha in the assay on Annual Bluegrass lay in the range of 75 to 100%; in the assay on Indian Mustard it was 75 to 100%; with Seedling Johnsongrass, 75 to 100%; with Wild Buckwheat, 50 to 74%; with Downy Brome, 0 to 24%; in the assay with Barnyardgrass, 75 to 100%. Further, the inhibition at 11200 g/ha in the assay on Velvetleaf fell in the range of 75 to 100%; with Morningglory, 75 to 100%; in the assay on Yellow Nutsedge it was 0 to 24%; with Cocklebur, 0 to 24%.
Turning to `COC(=O)c1c(OC)nc(C(F)(F)F)c(C(=O)SC)c1CC1CC1` [Compound 119, 3-pyridinecarboxylic acid, 4-(cyclopropylmethyl)-2-methoxy-5-[(methylthio)carbonyl]-6-(trifluoromethyl)-, methyl ester], the inhibition at 11200 g/ha in the assay with Annual Bluegrass, in the assay with Indian Mustard, in the assay on Seedling Johnsongrass, with Wild Buckwheat, in the assay on Downy Brome and in the assay on Barnyardgrass was 75 to 100% each time. Moreover, the inhibition at 11200 g/ha was in the range of 75 to 100% in the assay on Velvetleaf, 75 to 100% with Morningglory, 75 to 100% in the assay on Yellow Nutsedge and 50 to 74% in the assay on Cocklebur.
For `COC(=O)c1c(OC)nc(C(F)(F)F)c(CO)c1CC1CC1` [Compound 117, 3-pyridinecarboxylic acid, 4-(cyclopropylmethyl)-5-(hydroxymethyl)-2-methoxy-6-(trifluoromethyl)-, methyl ester], the inhibition at 11200 g/ha in the assay on Annual Bluegrass fell in the range of 75 to 100%; in the assay on Indian Mustard, 50 to 74%; in the assay on Seedling Johnsongrass it was 75 to 100%; in the assay with Wild Buckwheat, 50 to 74%; in the assay with Downy Brome, 0 to 24%; with Barnyardgrass it was 75 to 100%. Further, the inhibition at 11200 g/ha was in the range of 25 to 49% with Velvetleaf, 0 to 24% in the assay on Morningglory, 0 to 24% in the assay with Yellow Nutsedge and 0 to 24% in the assay on Cocklebur.
As for `COC(=O)c1c(OC)nc(C(F)(F)F)c(C(=O)Cl)c1C1CCC1` [Compound 138, 3-pyridinecarboxylic acid, 5-(chlorocarbonyl)-4-cyclobuty1-2-methoxy-6-(trifluoromethyl)-, methyl ester], the inhibition at 11200 g/ha with Annual Bluegrass, in the assay with Indian Mustard, in the assay with Seedling Johnsongrass, in the assay on Wild Buckwheat, with Downy Brome and in the assay with Barnyardgrass was 0 to 24% each time. The inhibition at 11200 g/ha in the assay with Velvetleaf, in the assay with Morningglory, in the assay with Yellow Nutsedge and in the assay with Cocklebur was 0 to 24% in each case.
Regarding `COc1nc(C(F)(F)F)c(C(=O)n2cccn2)c(CC(C)C)c1C(=O)SC` [Compound 131, 3-pyridinecarbothioic acid, 2-methoxy-4-(2-methylpropyl)-5-(1H-pyrazo1-1-ylcarbonyl)-6-(trifluoromethyl)-, S-methyl ester], the inhibition at 11200 g/ha in the assay on Annual Bluegrass, in the assay with Indian Mustard, in the assay on Seedling Johnsongrass, in the assay on Wild Buckwheat, in the assay with Downy Brome and in the assay with Barnyardgrass was 75 to 100% throughout. Moreover, the inhibition at 11200 g/ha with Velvetleaf was 75 to 100%; in the assay on Morningglory it was 75 to 100%; in the assay with Yellow Nutsedge, 75 to 100%; in the assay with Cocklebur it was 50 to 74%.
In the case of `COC(=O)c1c(OC)nc(C(F)(F)F)c(C(=O)n2cc(N)cn2)c1CC(C)C` [Compound 108, 3-pyridinecarboxylic acid, 5-[(4-amino-1H-pyrazo1-1-yl)carbonyl]-2-methoxy-4-(2-methylpropyl)-6-(trifluoromethyl)-, methyl ester], the inhibition at 11200 g/ha lay within 75 to 100% in the assay on Annual Bluegrass; 75 to 100% in the assay on Indian Mustard; 50 to 74% in the assay with Seedling Johnsongrass; 75 to 100% in the assay on Wild Buckwheat; 0 to 24% with Downy Brome; 75 to 100% with Barnyardgrass. The inhibition at 11200 g/ha with Velvetleaf fell in the range of 50 to 74%; in the assay on Morningglory it was 0 to 24%; with Yellow Nutsedge, 0 to 24%; with Cocklebur, 0 to 24%.
